Test results as given in PubChem BioAssay AID330 (DTP/NCI, 2004).
Values joined by “and” are separate entries in the source; they are usually repeats but may differ in a detail not shown here. Identical values can stand only once. Toxic doses and inconclusive results are not listed. The calls were made as follows: active = survival T/C of 150% or more; inactive = T/C below 125% in these data.

System: P388 leukemia ip, CD2F1 mice, survival T/C
Test: NCI In Vivo Anticancer Drug Screen. Data for tumor model P388 Leukemia (intraperitoneal) in CD2F1 (CDF1) mice
Conditions: endpoint: median survival time, higher = longer survival
In short: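 Mice carrying the transplanted tumor received test compound or vehicle. Survival was recorded in each group, and the value is the treated-group measurement divided by that of the vehicle-treated control group.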

[1] = dose: 25.0 mg/kg/injection, schedule: Q01DX009 (ip), vehicle: saline with Tween-80
[2] = dose: 25.0 mg/kg/injection, schedule: Q04DX003 (ip), vehicle: saline with Tween-80
[3] = dose: 50.0 mg/kg/injection, schedule: Q01DX009 (ip), vehicle: saline with Tween-80
[4] = dose: 50.0 mg/kg/injection, schedule: Q04DX003 (ip), vehicle: saline with Tween-80
[5] = dose: 100.0 mg/kg/injection, schedule: Q01DX009 (ip), vehicle: saline with Tween-80
[6] = dose: 100.0 mg/kg/injection, schedule: Q01DX001 (ip), vehicle: saline with Tween-80
[7] = dose: 200.0 mg/kg/injection, schedule: Q01DX001 (ip), vehicle: saline with Tween-80
[8] = dose: 400.0 mg/kg/injection, schedule: Q01DX001 (ip), vehicle: saline with Tween-80
[9] = dose: 50.0 mg/kg/injection, schedule: Q01DX005 (ip), vehicle: saline with Tween-80
[10] = dose: 100.0 mg/kg/injection, schedule: Q01DX005 (ip), vehicle: saline with Tween-80
[11] = dose: 200.0 mg/kg/injection, schedule: Q01DX005 (ip), vehicle: saline with Tween-80
[12] = dose: 60.0 mg/kg/injection, schedule: Q01DX005 (ip), vehicle: saline with Tween-80
[13] = dose: 120.0 mg/kg/injection, schedule: Q01DX005 (ip), vehicle: saline with Tween-80
[14] = dose: 240.0 mg/kg/injection, schedule: Q01DX005 (ip), vehicle: saline with Tween-80

Measured: T/C

S=P(c1ccccc1)(N1CC1)N1CC1
inactive: [1] 109 % of control | [2] 104 % of control | [3] 104 % of control | [4] 104 % of control | [5] 86 % of control | dose: 100.0 mg/kg/injection, schedule: Q04DX003 (ip), vehicle: saline with Tween-80 100 % of control and 113 % of control

CCCC(=O)NN(Cn1c(=S)sc2ccccc21)Cn1c(=S)sc2ccccc21
inactive: dose: 50.0 mg/kg/injection, schedule: Q01DX005 (ip), vehicle: Klucel (hydroxypropylcellulose) (HPC) 101 % of control | dose: 100.0 mg/kg/injection, schedule: Q01DX005 (ip), vehicle: Klucel (hydroxypropylcellulose) (HPC) 90 % of control | dose: 200.0 mg/kg/injection, schedule: Q01DX005 (ip), vehicle: Klucel (hydroxypropylcellulose) (HPC) 93 % of control

Cc1cccc(NC(=O)N(C(C)C)C(C)C)c1
inactive: dose: 60.0 mg/kg/injection, schedule: Q01DX005 (ip), vehicle: Klucel + Tween-80 100 % of control | dose: 120.0 mg/kg/injection, schedule: Q01DX005 (ip), vehicle: Klucel + Tween-80 97 % of control | dose: 240.0 mg/kg/injection, schedule: Q01DX005 (ip), vehicle: Klucel + Tween-80 89 % of control

C1CC[N-]CC1.C1CC[N-]CC1.C1CC[N-]CC1.[Cr+6].[N-]=C=O.[N-]=C=O.[N-]=C=O
inactive: dose: 100.0 mg/kg/injection, schedule: Q04DX002 (ip), vehicle: distilled water + alcohol 99 % of control | dose: 200.0 mg/kg/injection, schedule: Q04DX002 (ip), vehicle: distilled water + alcohol 96 % of control | dose: 400.0 mg/kg/injection, schedule: Q04DX002 (ip), vehicle: distilled water + alcohol 89 % of control

CCOC(=O)N(NC(=O)c1ccc(N(CCCl)CCCl)cc1)C(C)=O
inactive: dose: 3.13 mg/kg/injection, schedule: Q01DX009 (ip), vehicle: other 103 % of control | dose: 6.25 mg/kg/injection, schedule: Q01DX009 (ip), vehicle: other 100 % of control | dose: 12.5 mg/kg/injection, schedule: Q01DX009 (ip), vehicle: other 101 % of control | dose: 25.0 mg/kg/injection, schedule: Q01DX009 (ip), vehicle: other 111 % of control | dose: 50.0 mg/kg/injection, schedule: Q01DX009 (ip), vehicle: other 111 % of control and 114 % of control | dose: 88.0 mg/kg/injection, schedule: Q01DX009 (ip), vehicle: other 110 % of control | dose: 133.0 mg/kg/injection, schedule: Q01DX009 (ip), vehicle: other 112 % of control

O=C(O)c1nc2ccccc2c(=O)[nH]1
inactive: [1] 95 % of control | [3] 96 % of control | [5] 94 % of control | dose: 200.0 mg/kg/injection, schedule: Q01DX009 (ip), vehicle: saline with Tween-80 93 % of control

O=C(Cc1ccccc1)C1=S=C2SCCCN2C1=O
inactive: [6] 105 % of control | [7] 97 % of control | [8] 92 % of control

Cc1ccc2ncc([N+](=O)[O-])n2c1
inactive: dose: 50.0 mg/kg/injection, schedule: Q01DX001 (ip), vehicle: saline with Tween-80 94 % of control | [6] 97 % of control | [7] 90 % of control | [8] 94 % of control

COc1cc([C@@H]2c3cc(OC(C)=O)c(OC)cc3C[C@@H]3C(=O)OC[C@@H]23)ccc1OC(C)=O
inactive: [9] 98 % of control | [10] 93 % of control | [11] 93 % of control

Cn1nnnc1CC(=O)O
inactive: dose: 100.0 mg/kg/injection, schedule: Q04DX003 (ip), vehicle: saline 99 % of control | dose: 200.0 mg/kg/injection, schedule: Q04DX003 (ip), vehicle: saline 108 % of control | dose: 400.0 mg/kg/injection, schedule: Q04DX003 (ip), vehicle: saline 103 % of control

CC(=O)C(C(=O)Nc1cccc2ccccc12)C(C)=NCCN=C(C)C(C(C)=O)C(=O)Nc1cccc2ccccc12.[Cu] (configuration not stated)
inactive: [9] 94 % of control | [10] 96 % of control | [11] 96 % of control

CCc1nn2c(=O)nc(SC)nc2s1
inactive: dose: 12.5 mg/kg/injection, schedule: Q04DX003 (ip), vehicle: saline with Tween-80 102 % of control | [2] 100 % of control | [4] 102 % of control

CC(=O)O[C@@H]1C[C@H]2C(C)(C)C(=O)C=C[C@]2(C)[C@H]2CC[C@]3(C)C(=CC(=O)O[C@]3(O)c3ccoc3)[C@@]21C
inactive: dose: 1.0 mg/kg/injection, schedule: Q01DX005 (ip), vehicle: Klucel (hydroxypropylcellulose) (HPC) 95 % of control | dose: 2.0 mg/kg/injection, schedule: Q01DX005 (ip), vehicle: Klucel (hydroxypropylcellulose) (HPC) 100 % of control | dose: 4.0 mg/kg/injection, schedule: Q01DX005 (ip), vehicle: Klucel (hydroxypropylcellulose) (HPC) 95 % of control | dose: 8.0 mg/kg/injection, schedule: Q01DX005 (ip), vehicle: Klucel (hydroxypropylcellulose) (HPC) 95 % of control

C=CCN(CC=C)P1(=O)NCCCO1 (configuration not stated)
inactive: dose: 50.0 mg/kg/injection, schedule: Q01DX005 (ip), vehicle: saline 103 % of control | dose: 100.0 mg/kg/injection, schedule: Q01DX005 (ip), vehicle: saline 102 % of control | dose: 200.0 mg/kg/injection, schedule: Q01DX005 (ip), vehicle: saline 105 % of control

CN(C)c1ccc(C2N(C)CCN2C)cc1
inactive: [12] 93 % of control | [13] 99 % of control | [14] 103 % of control

Cc1nn(-c2ccccc2)c2oc3ccccc3c(=O)c12
inactive: dose: 60.0 mg/kg/injection, schedule: Q01DX005 (ip), vehicle: saline 92 % of control | dose: 120.0 mg/kg/injection, schedule: Q01DX005 (ip), vehicle: saline 100 % of control | dose: 240.0 mg/kg/injection, schedule: Q01DX005 (ip), vehicle: saline 96 % of control

C#CCSc1n[nH]c(=O)n1C1CCCCC1
inactive: [12] 99 % of control | [13] 106 % of control | [14] 106 % of control

O=NN(C(=O)NC1CC1)C1CC1
inactive: dose: 25.0 mg/kg/injection, schedule: Q01DX001 (ip), vehicle: water 111 % of control | dose: 50.0 mg/kg/injection, schedule: Q01DX001 (ip), vehicle: water 102 % of control | dose: 100.0 mg/kg/injection, schedule: Q01DX001 (ip), vehicle: water 109 % of control

CC(=O)C(=Cc1c(N(C)c2ccccc2)nn2ccccc12)C(C)=O
inactive: [6] 100 % of control | [7] 100 % of control | [8] 100 % of control

COc1cc2c(cc1[N+](=O)[O-])C(=O)C(Br)(Br)CCC2
inactive: dose: 50.0 mg/kg/injection, schedule: Q01DX009 (ip), vehicle: Klucel (hydroxypropylcellulose) (HPC) 116 % of control | dose: 100.0 mg/kg/injection, schedule: Q01DX009 (ip), vehicle: Klucel (hydroxypropylcellulose) (HPC) 119 % of control

O=c1[nH]c2ccccc2nc1Cl
inactive: [1] 100 % of control | [3] 98 % of control | [5] 97 % of control

Cc1cc2c(=O)cc(-c3ccccc3Cl)oc2c(C#N)c1C
inactive: dose: 1.87 mg/kg/injection, schedule: Q01DX005 (ip), vehicle: Klucel (hydroxypropylcellulose) (HPC) 95 % of control | dose: 3.75 mg/kg/injection, schedule: Q01DX005 (ip), vehicle: Klucel (hydroxypropylcellulose) (HPC) 101 % of control | dose: 7.5 mg/kg/injection, schedule: Q01DX005 (ip), vehicle: Klucel (hydroxypropylcellulose) (HPC) 117 % of control | dose: 60.0 mg/kg/injection, schedule: Q01DX005 (ip), vehicle: Klucel (hydroxypropylcellulose) (HPC) 86 % of control | dose: 240.0 mg/kg/injection, schedule: Q01DX005 (ip), vehicle: Klucel (hydroxypropylcellulose) (HPC) 95 % of control
